Assay results published in ChEMBL document CHEMBL4507295 (2021).

What was measured:
[1] = target: Serine/threonine-protein kinase BRSK1 (Homo sapiens) (UniProt Q8TDC3); conditions: Compound concentration 1000.0 nM
[2] = target: NT-3 growth factor receptor (Homo sapiens) (UniProt Q16288); conditions: Compound concentration 1000.0 nM
[3] = target: Kappa-type opioid receptor (Homo sapiens) (UniProt P41145); conditions: Compound concentration 10.0 uM
[4] = target: Insulin-like growth factor 1 receptor (Homo sapiens) (UniProt P08069); conditions: Compound concentration 1000.0 nM
[5] = target: Cytoplasmic tyrosine-protein kinase BMX (Homo sapiens) (UniProt P51813); conditions: Compound concentration 1000.0 nM
[6] = target: MAP kinase-interacting serine/threonine-protein kinase 1 (Homo sapiens) (UniProt Q9BUB5); conditions: Compound concentration 1000.0 nM
[7] = tested on: Receptor-type tyrosine-protein kinase FLT3 (Homo sapiens), P36888 [N841I]; conditions: Compound concentration 1000.0 nM
[8] = target: Sodium-dependent noradrenaline transporter (Homo sapiens) (UniProt P23975); conditions: Compound concentration 10.0 uM
[9] = target: Phosphatidylinositol 5-phosphate 4-kinase type-2 beta (Homo sapiens) (UniProt P78356); conditions: Compound concentration 1000.0 nM
[10] = target: Protein kinase C delta type (Homo sapiens) (UniProt Q05655); conditions: Compound concentration 1000.0 nM
[11] = target: Serine/threonine-protein kinase N1 (Homo sapiens) (UniProt Q16512); conditions: Compound concentration 1000.0 nM
[12] = target: LIM domain kinase 1 (Homo sapiens) (UniProt P53667); conditions: Compound concentration 1000.0 nM
[13] = tested on: Tyrosine-protein kinase ABL1 (Homo sapiens), P00519 [Q252H]; conditions: Compound concentration 1000.0 nM
[14] = target: Casein kinase I isoform delta (Homo sapiens) (UniProt P48730); conditions: Compound concentration 1000.0 nM
[15] = target: Calcium/calmodulin-dependent protein kinase type 1G (Homo sapiens) (UniProt Q96NX5); conditions: Compound concentration 1000.0 nM
[16] = tested on: Receptor-type tyrosine-protein kinase FLT3 (Homo sapiens), P36888 [K663Q]; conditions: Compound concentration 1000.0 nM
[17] = target: Mitogen-activated protein kinase 12 (Homo sapiens) (UniProt P53778); conditions: Compound concentration 1000.0 nM
[18] = target: Dual specificity protein kinase TTK (Homo sapiens) (UniProt P33981); conditions: Compound concentration 1000.0 nM
[19] = target: cGMP-dependent protein kinase 1 (Homo sapiens) (UniProt Q13976); conditions: Compound concentration 1000.0 nM
[20] = target: Tyrosine-protein kinase ZAP-70 (Homo sapiens) (UniProt P43403); conditions: Compound concentration 1000.0 nM
[21] = target: Ephrin type-A receptor 4 (Homo sapiens) (UniProt P54764); conditions: Compound concentration 1000.0 nM
[22] = target: T1, Muscarinic acetylcholine receptor M1 (Homo sapiens) (UniProt P11229); conditions: Compound concentration 10.0 uM
T1 sequence (whole entry): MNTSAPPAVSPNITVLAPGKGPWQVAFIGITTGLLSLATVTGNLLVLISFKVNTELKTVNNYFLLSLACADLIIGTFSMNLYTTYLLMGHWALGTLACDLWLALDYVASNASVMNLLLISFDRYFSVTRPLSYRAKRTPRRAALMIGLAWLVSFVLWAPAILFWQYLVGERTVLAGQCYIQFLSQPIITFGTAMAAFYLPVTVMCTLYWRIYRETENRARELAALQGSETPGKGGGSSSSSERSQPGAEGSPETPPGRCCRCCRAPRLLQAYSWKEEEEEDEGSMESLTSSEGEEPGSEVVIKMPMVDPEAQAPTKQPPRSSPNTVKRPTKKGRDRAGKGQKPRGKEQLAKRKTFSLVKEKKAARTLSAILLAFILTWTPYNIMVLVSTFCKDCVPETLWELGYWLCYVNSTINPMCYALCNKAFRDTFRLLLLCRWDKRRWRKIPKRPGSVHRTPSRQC

[23] = target: Homeodomain-interacting protein kinase 2 (Homo sapiens) (UniProt Q9H2X6); conditions: Compound concentration 1000.0 nM
[24] = target: Citron Rho-interacting kinase (Homo sapiens) (UniProt O14578); conditions: Compound concentration 1000.0 nM
[25] = target: Dual specificity protein kinase CLK4 (Homo sapiens) (UniProt Q9HAZ1); conditions: Compound concentration 1000.0 nM
[26] = target: G protein-coupled receptor kinase 3 (Homo sapiens) (UniProt P35626); conditions: Compound concentration 1000.0 nM
[27] = target: Vascular endothelial growth factor receptor 3 (Homo sapiens) (UniProt P35916); conditions: Compound concentration 1000.0 nM
[28] = tested on: eIF-2-alpha kinase GCN2 (Homo sapiens), Q9P2K8 [S808G]; conditions: Compound concentration 1000.0 nM
[29] = target: Mitogen-activated protein kinase kinase kinase 1 (Homo sapiens) (UniProt Q13233); conditions: Compound concentration 1000.0 nM
[30] = target: Serine/threonine-protein kinase TAO1 (Homo sapiens) (UniProt Q7L7X3); conditions: Compound concentration 1000.0 nM
[31] = target: Serine/threonine-protein kinase PAK 5 (Homo sapiens) (UniProt Q9P286); conditions: Compound concentration 1000.0 nM
[32] = target: Calcium/calmodulin-dependent protein kinase type II subunit gamma (Homo sapiens) (UniProt Q13555); conditions: Compound concentration 1000.0 nM
[33] = target: Beta-3 adrenergic receptor (Homo sapiens) (UniProt P13945); conditions: Compound concentration 10.0 uM
[34] = target: NUAK family SNF1-like kinase 1 (Homo sapiens) (UniProt O60285); conditions: Compound concentration 1000.0 nM
[35] = target: Epithelial discoidin domain-containing receptor 1 (Homo sapiens) (UniProt Q08345); conditions: Compound concentration 1000.0 nM
[36] = target: Mitogen-activated protein kinase kinase kinase 7 (Homo sapiens) (UniProt O43318); conditions: Compound concentration 1000.0 nM
[37] = target: Histamine H1 receptor (Homo sapiens) (UniProt P35367); conditions: Compound concentration 10.0 uM
[38] = tested on: Tyrosine-protein kinase ABL1 (Homo sapiens), P00519 [F317I]; conditions: Compound concentration 1000.0 nM
[39] = target: SRSF protein kinase 2 (Homo sapiens) (UniProt P78362); conditions: Compound concentration 1000.0 nM

Sequence of Homeodomain-interacting protein kinase 2 (Homo sapiens) (Q9H2X6 whole entry, looked up): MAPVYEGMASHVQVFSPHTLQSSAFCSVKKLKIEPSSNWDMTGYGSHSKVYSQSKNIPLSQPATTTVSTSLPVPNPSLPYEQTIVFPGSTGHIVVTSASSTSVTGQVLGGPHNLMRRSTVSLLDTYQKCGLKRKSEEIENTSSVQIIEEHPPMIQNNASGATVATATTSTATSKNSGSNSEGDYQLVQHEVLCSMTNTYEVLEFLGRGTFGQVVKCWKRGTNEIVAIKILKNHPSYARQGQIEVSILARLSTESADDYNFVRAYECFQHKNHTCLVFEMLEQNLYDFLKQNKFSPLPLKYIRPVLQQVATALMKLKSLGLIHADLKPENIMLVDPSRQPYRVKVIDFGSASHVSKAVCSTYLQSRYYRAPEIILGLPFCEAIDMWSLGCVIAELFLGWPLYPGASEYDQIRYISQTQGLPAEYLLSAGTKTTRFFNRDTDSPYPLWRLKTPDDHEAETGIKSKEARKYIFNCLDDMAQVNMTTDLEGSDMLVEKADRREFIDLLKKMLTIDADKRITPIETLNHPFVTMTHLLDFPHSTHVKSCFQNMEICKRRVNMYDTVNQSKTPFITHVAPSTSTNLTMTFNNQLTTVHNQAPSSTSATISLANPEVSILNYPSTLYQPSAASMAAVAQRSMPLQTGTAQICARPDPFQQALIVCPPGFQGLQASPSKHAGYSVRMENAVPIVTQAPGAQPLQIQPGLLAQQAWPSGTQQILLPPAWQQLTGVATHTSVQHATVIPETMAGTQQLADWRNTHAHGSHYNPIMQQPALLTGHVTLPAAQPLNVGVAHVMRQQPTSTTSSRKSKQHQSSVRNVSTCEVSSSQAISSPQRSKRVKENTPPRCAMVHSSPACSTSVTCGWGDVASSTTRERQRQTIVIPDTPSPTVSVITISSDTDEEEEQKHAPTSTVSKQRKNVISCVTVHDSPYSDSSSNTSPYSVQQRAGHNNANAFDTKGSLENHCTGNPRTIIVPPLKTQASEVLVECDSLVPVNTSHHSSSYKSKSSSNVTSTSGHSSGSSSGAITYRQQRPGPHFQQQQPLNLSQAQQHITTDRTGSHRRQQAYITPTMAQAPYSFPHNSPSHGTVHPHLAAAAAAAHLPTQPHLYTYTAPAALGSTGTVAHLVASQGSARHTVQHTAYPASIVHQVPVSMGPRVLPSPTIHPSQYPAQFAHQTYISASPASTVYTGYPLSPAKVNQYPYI
Sequence of Dual specificity protein kinase TTK (Homo sapiens) (P33981 whole entry): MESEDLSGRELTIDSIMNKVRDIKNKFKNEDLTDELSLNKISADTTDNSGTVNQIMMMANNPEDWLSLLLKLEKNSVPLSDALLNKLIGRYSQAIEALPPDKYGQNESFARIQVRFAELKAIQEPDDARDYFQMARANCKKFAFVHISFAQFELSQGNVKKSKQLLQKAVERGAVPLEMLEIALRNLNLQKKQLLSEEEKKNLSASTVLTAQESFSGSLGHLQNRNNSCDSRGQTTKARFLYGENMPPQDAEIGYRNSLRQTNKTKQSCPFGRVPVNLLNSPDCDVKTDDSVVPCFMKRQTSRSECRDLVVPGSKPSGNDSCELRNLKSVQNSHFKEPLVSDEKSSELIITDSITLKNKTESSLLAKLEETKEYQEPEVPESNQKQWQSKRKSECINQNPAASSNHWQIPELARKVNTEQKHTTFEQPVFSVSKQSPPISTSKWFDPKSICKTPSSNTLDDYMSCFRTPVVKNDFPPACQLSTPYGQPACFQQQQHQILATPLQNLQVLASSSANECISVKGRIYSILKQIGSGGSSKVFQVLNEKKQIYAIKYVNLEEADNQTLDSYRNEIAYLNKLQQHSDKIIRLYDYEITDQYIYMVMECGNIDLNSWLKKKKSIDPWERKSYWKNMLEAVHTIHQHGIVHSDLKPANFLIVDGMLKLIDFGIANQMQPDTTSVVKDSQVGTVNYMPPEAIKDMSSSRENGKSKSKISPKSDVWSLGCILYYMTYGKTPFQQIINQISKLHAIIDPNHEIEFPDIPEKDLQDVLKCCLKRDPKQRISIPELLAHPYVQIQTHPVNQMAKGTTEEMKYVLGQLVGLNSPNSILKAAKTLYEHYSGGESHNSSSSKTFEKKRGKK
Sequence of Dual specificity protein kinase CLK4 (Homo sapiens) (Q9HAZ1 whole entry, looked up): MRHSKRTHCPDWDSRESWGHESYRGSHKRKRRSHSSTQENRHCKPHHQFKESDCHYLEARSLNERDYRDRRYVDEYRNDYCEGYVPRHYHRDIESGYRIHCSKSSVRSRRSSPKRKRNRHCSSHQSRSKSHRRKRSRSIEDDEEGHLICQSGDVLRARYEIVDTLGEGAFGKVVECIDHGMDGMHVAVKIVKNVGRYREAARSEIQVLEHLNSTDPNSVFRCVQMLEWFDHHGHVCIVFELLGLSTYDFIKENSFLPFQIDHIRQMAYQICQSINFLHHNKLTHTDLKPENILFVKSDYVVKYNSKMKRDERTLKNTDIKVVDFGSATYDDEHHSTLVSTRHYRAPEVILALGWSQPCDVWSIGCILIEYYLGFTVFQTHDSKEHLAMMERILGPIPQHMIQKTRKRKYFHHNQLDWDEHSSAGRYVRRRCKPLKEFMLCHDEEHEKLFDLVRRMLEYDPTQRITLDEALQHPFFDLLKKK
Sequence of MAP kinase-interacting serine/threonine-protein kinase 1 (Homo sapiens) (Q9BUB5 whole entry, looked up): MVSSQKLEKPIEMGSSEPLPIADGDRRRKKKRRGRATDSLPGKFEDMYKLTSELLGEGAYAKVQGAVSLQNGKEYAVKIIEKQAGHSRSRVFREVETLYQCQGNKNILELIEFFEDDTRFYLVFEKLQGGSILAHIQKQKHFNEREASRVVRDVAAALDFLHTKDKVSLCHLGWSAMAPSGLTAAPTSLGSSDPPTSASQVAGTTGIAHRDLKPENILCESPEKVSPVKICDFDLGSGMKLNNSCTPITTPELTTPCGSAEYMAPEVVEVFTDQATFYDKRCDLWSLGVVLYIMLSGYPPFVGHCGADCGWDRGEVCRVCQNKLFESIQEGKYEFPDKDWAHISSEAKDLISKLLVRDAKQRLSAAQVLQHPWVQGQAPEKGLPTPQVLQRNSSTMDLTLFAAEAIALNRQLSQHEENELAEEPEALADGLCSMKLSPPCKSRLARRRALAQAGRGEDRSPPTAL
Sequence of NT-3 growth factor receptor (Homo sapiens) (Q16288 32-839 limits assumed): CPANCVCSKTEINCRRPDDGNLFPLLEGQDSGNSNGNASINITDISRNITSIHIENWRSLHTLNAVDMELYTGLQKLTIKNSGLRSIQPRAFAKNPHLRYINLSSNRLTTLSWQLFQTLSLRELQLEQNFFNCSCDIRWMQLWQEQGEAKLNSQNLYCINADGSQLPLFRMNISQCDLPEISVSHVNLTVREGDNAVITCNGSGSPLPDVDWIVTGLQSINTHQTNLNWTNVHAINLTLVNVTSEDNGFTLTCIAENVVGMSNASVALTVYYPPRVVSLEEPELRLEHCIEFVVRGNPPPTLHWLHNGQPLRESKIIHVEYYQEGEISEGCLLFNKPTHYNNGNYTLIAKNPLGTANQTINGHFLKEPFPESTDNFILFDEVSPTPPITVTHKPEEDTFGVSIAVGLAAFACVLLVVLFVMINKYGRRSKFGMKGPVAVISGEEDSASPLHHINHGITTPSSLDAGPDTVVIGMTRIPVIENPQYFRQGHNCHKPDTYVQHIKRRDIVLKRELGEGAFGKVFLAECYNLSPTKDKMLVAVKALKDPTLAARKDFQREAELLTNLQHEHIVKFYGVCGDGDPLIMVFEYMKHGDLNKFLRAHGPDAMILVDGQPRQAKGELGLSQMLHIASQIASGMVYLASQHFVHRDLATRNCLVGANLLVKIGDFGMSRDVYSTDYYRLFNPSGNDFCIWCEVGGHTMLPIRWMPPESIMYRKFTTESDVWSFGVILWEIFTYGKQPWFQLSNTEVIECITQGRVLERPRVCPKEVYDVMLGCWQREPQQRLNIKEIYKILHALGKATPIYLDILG
Sequence of Sodium-dependent noradrenaline transporter (Homo sapiens) (P23975 whole entry): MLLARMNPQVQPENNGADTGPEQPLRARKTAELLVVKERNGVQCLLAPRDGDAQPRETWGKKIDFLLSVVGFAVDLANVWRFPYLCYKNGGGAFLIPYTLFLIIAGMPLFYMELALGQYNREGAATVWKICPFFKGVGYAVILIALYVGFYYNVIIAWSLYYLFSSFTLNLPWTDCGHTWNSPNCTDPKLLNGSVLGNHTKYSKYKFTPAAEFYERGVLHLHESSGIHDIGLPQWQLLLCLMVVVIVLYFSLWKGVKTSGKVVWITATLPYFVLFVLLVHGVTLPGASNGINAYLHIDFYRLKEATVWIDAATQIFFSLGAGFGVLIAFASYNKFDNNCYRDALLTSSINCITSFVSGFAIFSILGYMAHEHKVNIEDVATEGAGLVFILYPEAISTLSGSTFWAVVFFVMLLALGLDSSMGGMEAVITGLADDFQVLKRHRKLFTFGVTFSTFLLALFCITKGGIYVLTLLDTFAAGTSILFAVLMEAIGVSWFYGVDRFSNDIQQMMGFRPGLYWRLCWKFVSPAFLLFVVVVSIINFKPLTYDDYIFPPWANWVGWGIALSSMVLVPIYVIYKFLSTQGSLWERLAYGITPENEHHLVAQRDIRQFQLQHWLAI
Sequence of Calcium/calmodulin-dependent protein kinase type 1G (Homo sapiens) (Q96NX5 whole entry): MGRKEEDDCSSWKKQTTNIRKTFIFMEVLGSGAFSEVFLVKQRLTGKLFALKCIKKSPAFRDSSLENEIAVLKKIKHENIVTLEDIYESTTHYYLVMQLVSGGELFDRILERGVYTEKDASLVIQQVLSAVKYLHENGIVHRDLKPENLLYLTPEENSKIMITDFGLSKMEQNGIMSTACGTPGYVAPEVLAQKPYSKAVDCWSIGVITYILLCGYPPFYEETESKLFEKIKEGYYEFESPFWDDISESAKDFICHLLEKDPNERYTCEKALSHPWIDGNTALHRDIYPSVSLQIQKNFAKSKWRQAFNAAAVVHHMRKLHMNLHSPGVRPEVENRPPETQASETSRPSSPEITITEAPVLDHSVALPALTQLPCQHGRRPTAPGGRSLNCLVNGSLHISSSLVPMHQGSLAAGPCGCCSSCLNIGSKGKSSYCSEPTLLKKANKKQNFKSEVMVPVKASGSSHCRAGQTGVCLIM

Row | Compound | residual activity [1] [%] | residual activity [2] [%] | inhibition [3] [%] | residual activity [4] [%] | residual activity [5] [%] | residual activity [6] [%] | residual activity [7] [%] | inhibition [8] [%] | residual activity [9] [%] | residual activity [10] [%] | residual activity [11] [%] | residual activity [12] [%] | residual activity [13] [%] | residual activity [14] [%] | residual activity [15] [%] | residual activity [16] [%] | residual activity [17] [%] | residual activity [18] [%] | residual activity [19] [%] | residual activity [20] [%] | further results
1 | N#CC1(c2ccccn2)CCN(Cc2cc(C(=O)O)c(=O)n3ccccc23)CC1 [MSD-M1PAM] | 100 | 70 | 47.3 | 89 | 88 | 85 | 97 | 24.7 | 100 | 100 | 100 | 100 | 72 | 96 | 100 | 100 | 78 | 88 | 98 | 100 | residual activity [21]: 79%; inhibition [22]: -1%; residual activity [23]: 66%; residual activity [24]: 98%; residual activity [25]: 100%; residual activity [26]: 95%; residual activity [27]: 100%; residual activity [28]: 100%; residual activity [29]: 98%; residual activity [30]: 100%; residual activity [31]: 96%; residual activity [32]: 100%; inhibition [33]: -5.05%; residual activity [34]: 98%; residual activity [35]: 100%; residual activity [36]: 90%; inhibition [37]: 28.4%; residual activity [38]: 81%; residual activity [39]: 100%
2 | N#CC1(c2ccccn2)CCN(Cc2cc(C(=O)N3CCCC3)c(=O)n3ccccc23)CC1 | 87 | 100 | 46.8 | 88 | 84 | 100 | 100 | 40.5 | 62 | 95 | 91 | 98 | 90 | 74 | 100 | 30 | 100 | 98 | 88 | 100 | residual activity [21]: 89%; inhibition [22]: -2.01%; residual activity [23]: 100%; residual activity [24]: 99%; residual activity [25]: 97%; residual activity [26]: 77%; residual activity [27]: 86%; residual activity [28]: 78%; residual activity [29]: 98%; residual activity [30]: 100%; residual activity [31]: 93%; residual activity [32]: 100%; inhibition [33]: 17.4%; residual activity [34]: 86%; residual activity [35]: 85%; residual activity [36]: 99%; inhibition [37]: 9.7%; residual activity [38]: 75%; residual activity [39]: 84%
